The text below walks through data of PMC10460844, “Real‐Time Monitoring of Multitarget Antimicrobial Mechanisms of Peptoids Using Label‐Free Imaging with Optical Diffraction Tomography” (Advanced Science, 2023).

Molecules are shown by their SMILES. Read-outs that look alike come from different tables or passages of the source. Square brackets hold non-standard residues; d marks the D form. Peptide text beside a SMILES is read from it. Gly(N(CH2)2(3-indolyl)) = O=C(O)CNCCc1c[nH]c2ccccc12; Nspe = C[C@H](NCC(=O)O)c1ccccc1; Nlys = NCCCCNCC(=O)O

One data set concerns S. aureus MRSA C623. The data set is classed as cell-based.
Data set [1] concerns MRC-5 human lung fibroblast cells. The data set is classed as cell-based. The method, then: 4. Cell culture and cytotoxicity test using MTS assay
(Seoul, South Korea), human keratinocytes (HaCaT) were provided by the Skin Research Institute R&D Center of Amore Pacific Company (Yongin, South Korea). All cells were grown in Dulbecco's modified Eagle’s medium (DMEM) supplemented with 10% fetal bovine serum at 37 °C in an atmosphere containing 5% CO2. The 3-(4,5-dimethylthiazol-2- […]
assays were used to determine the effects of peptoids on cell growth.[4] Aliquots (100 µL) of media containing 1.3×10^4 MRC-5 cells/mL or 3×10^4 HaCaT cells/mL were distributed into each well of a 96-well plate (Eppendorf, Hamburg, Germany). The cells were allowed to attach and were grown in a humidified atmosphere containing 5% CO2 at 37 °C for 24 h.
When the cell density reached approximately 70% confluency, the medium was replaced with serial dilutions of the peptoid stock in DMEM and incubated for an additional 24 h. At this point, 20 µL of the CellTiter 96 aqueous non-radioactive cell proliferation assay reagent (Promega, Madison, WI, USA), which contains the tetrazolium compound, was added to each well. Plates were incubated for 4 h at 37 °C to allow time for metabolism. The MTS-formazan products in viable cells were measured at 490 nm using a microplate reader, and the percentage of cell viability (%) was calculated by comparing readings to the values of untreated wells. Percentage values of cell viability were calculated as A/(A control)×100, where A is the absorbance of the test well and A control is the average absorbance of wells containing untreated cells. […]

Data set [2] is described as follows: SAXS of peptoid self-assembly in aqueous environment. The data set is classed as physicochemical. The conditions noted are these: for self-assembly state in aqueous solution: aqueous environment. The method, then:
Prior to the experiment, peptoids were dissolved in Tris buffer (50 mM, pH 7.4). This peptoid stock solution (5 mg mL^−1) was diluted as needed. Unilamellar lipid vesicles were prepared using synthetic DMPC, DMPG, and DMPE‐PEG at a 75:22.5:2.5 molar ratio. The lipids were first dissolved in a 1:3 (v/v) methanol:chloroform solution. To make a lipid film, the organic solvents were removed completely under vacuum using a rotary evaporator with a Vacuubrand vacuum pump. The resulting lipid film was hydrated at 35 °C using Tris buffer (50 mM, pH 7.4). After hydration, the dispersion was sonicated for 15 min to promote the formation of smaller unilamellar vesicles. This was followed by the extrusion of lipid vesicles through a 100 nm pore diameter polycarbonate filter (>21 times) using an Avanti mini‐extruder fitted with two 1 mL airtight syringes. Immediately before the SAXS data collection, a peptoid solution with the adequate concentration for the target lipid:peptoid ratio was mixed 1:1 with the lipid solution (5 mg mL^−1) using a micropipette. SAXS experiments were performed at the automated BM29 bioSAXS beamline at the European Synchrotron Radiation Facility (ESRF) in Grenoble, France.^[ [47] ^] […] All experiments were conducted at 37 °C. The data set was calibrated to an absolute intensity scale using water as a primary standard. Samples (45 µL) were run through a capillary using the flow mode of the automated sample changer.^[ [48] ^] SAXS data was collected in ten successive frames of 0.5 s each to monitor radiation damage, and the data reduction was carried out using BioXTAS RAW program.^[ [49] ^]
All scattering models were implemented and fitted to the experimental SAXS data using the QtiSAS software.^[ [50] ^]

The next data set relates to K. pneumonia ESBL 61962. The data set is classed as cell-based.
The test system of another data set is E. coli ESBL 63103. The data set is classed as cell-based.
Another data set has as its system E. coli ML-35 cells. The experiment in a line: ONPG hydrolysis assay (inner membrane). The class given is cell-based. The following applies: 1.5 mM ONPG, 10 mM sodium phosphate pH 7.4, absorbance 405 nm. Here is the method:
(§1) The permeability of the inner membrane was determined using E. coli ML-35 cells […]
(§2) The intact bacterial inner membrane is non-permeable to o-nitrophenyl-β-D-galactopyranoside (OPNG), a chromogenic substrate of the β-galactosidase.
Following damage to the inner membrane, OPNG enters the cells and is metabolized by β-galactosidase creating a chromogenic […]. E. coli cells were washed in 10 mM sodium phosphate (pH 7.4) containing 100 mM NaCl and resuspended in the same buffer at a final concentration of OD600 = 0.5 containing 1.5 mM ONPG. The hydrolysis of ONPG and generation of o-nitrophenol over time were monitored as absorbance change at 405 nm following the addition of peptoids. […]

For another data set, the system named is E. coli ATCC 25922. The experiment in a line: Thioflavin S fluorescence imaging of intracellular aggregation. The class given is cell-based. The conditions noted are these: 29 and peptoid 1 at 4 × MIC, control peptides 2 × MIC.
The nature of data set [3]: S9 fraction stability assay. The data set is classed as in vitro ADME. The following applies: NADPH, 100 mM Tris-HCl pH 7.4, […] MgCl2, 37 °C, 24 h incubation, HPLC or LC-MS, compared to pexiganan. Here is the method: 200 μL NPN dye was added to wells of a 96 well plate to produce a final concentration of 10 μM, and the background fluorescence was recorded (λex = 350 nm, λem = 420 nm). Aliquots of peptoids were added to the well, and fluorescence was recorded as a function of time until there was no further increase in fluorescence. Increases of the permeability of the outer membrane after the addition of peptoids was reflected by increased fluorescence values as a result of NPN incorporation into the membrane.
as §1, §2
Following damage to the inner membrane, OPNG enters the cells and is metabolized by β-galactosidase creating a chromogenic […]. […] The hydrolysis of ONPG and generation of o-nitrophenol over time were monitored as absorbance change at 405 nm following the addition of peptoids.
The resistance of peptoids against metabolic enzyme degradation was measured by an S9 fraction assay. […] Quenched samples were centrifuged for 5 minutes at 1200 rpm and analyzed by analytical HPLC or LC-MS.
Protein extraction and quantification using Bradford assay […]

Setting [4] is: SAXS, cylindrical α-helical bundle model, 5 mg mL^−1.

Take `C[C@@H](c1ccccc1)N(CC(=O)N(CCCCN)CC(=O)N(CC(=O)N(CC(=O)N(CCCCN)CC(=O)N(CC(=O)N(CC(=O)N(CCCCN)CC(=O)N(CCc1c[nH]c2ccccc12)CC(=O)N(CCc1c[nH]c2ccccc12)CC(N)=O)[C@@H](C)c1ccccc1)[C@@H](C)c1ccccc1)[C@@H](C)c1ccccc1)[C@@H](C)c1ccccc1)C(=O)CN(C(=O)CNCCCCN)[C@@H](C)c1ccccc1` [peptoid 11] (H-[Nlys][Nspe][Nspe][Nlys][Nspe][Nspe][Nlys][Nspe][Nspe][Nlys][Gly(N(CH2)2(3-indolyl))][Gly(N(CH2)2(3-indolyl))]-NH2): the “MIC S. aureus MRSA C623” value in the data set with S. aureus MRSA C623 was in the range of 3.1 to 6.3 µM. The “LC50 MRC-5” value in data set [1] was 6.9 µM. The “self-assembly state in aqueous solution” value in data set [2] (SAXS, 5 mg mL^−1) is on record as “larger defined nanostructures”. Moreover, in data set [2] (setting [4]), the fraction of dimers turned out to be 10%, the fraction of monomers is given as 30% and the fraction of trimers was found to be 60%. Further, the “MIC K. pneumonia ESBL 61962” value against K. pneumonia ESBL 61962 lay within 6.3 to 12.5 µM. Further, the “MIC E. coli ESBL 63103” value with E. coli ESBL 63103 lay in the range of 3.1 to 6.3 µM. For the same compound, the “inner membrane disruption (ONPG hydrolysis)” value (shortened to “inner membrane disruption”) in the data set with E. coli ML-35 cells is “strongly disrupted”.
With `C[C@@H](c1ccccc1)N(CC(N)=O)C(=O)CN(C(=O)CN(CCCCN)C(=O)CN(C(=O)CN(C(=O)CN(CCCCN)C(=O)CN(C(=O)CN(C(=O)CN(CCCCN)C(=O)CN(C(=O)CN(C(=O)CNCCCCN)[C@@H](C)c1ccccc1)[C@@H](C)c1ccccc1)[C@@H](C)c1ccccc1)[C@@H](C)c1ccccc1)[C@@H](C)c1ccccc1)[C@@H](C)c1ccccc1)[C@@H](C)c1ccccc1` [peptoid 1, reference compound] (H-[Nlys][Nspe][Nspe][Nlys][Nspe][Nspe][Nlys][Nspe][Nspe][Nlys][Nspe][Nspe]-NH2), the “Th S fluorescence (intracellular biomass aggregation)” value in the data set on E. coli ATCC 25922 is “enhanced Th S fluorescence”. The “stability in human liver S9 fraction” value in data set [3] was “superior stability”. In addition, the “LC50 MRC-5” value in data set [1] (MTS assay, 24 h exposure in DMEM, concentration killing 50% of cells) is 8.1 µM. Also, the “inner membrane disruption” value in the data set on E. coli ML-35 cells was “strongly disrupted”.
On to `C[C@@H](c1ccccc1)N(CC(=O)N(CCCCN)CC(=O)N(CCc1c[nH]c2ccccc12)CC(=O)N(CCc1c[nH]c2ccccc12)CC(N)=O)C(=O)CN(CCCCN)C(=O)CN(CCCCN)C(=O)CN(C(=O)CN(C(=O)CN(CCCCN)C(=O)CN(C(=O)CN(C(=O)CNCCCCN)[C@@H](C)c1ccccc1)[C@@H](C)c1ccccc1)[C@@H](C)c1ccccc1)[C@@H](C)c1ccccc1` [peptoid 29] (H-[Nlys][Nspe][Nspe][Nlys][Nspe][Nspe][Nlys][Nlys][Nspe][Nlys][Gly(N(CH2)2(3-indolyl))][Gly(N(CH2)2(3-indolyl))]-NH2), for which, in the data set with E. coli ATCC 25922, the “Th S fluorescence (intracellular biomass aggregation)” value is recorded as “significantly increased emission”. Also, in the data set on S. aureus MRSA C623, the “MIC S. aureus MRSA C623” value fell in the range of 3.1 to 6.3 µM. For the same compound, the “stability in human liver S9 fraction” value in data set [3] is “superior stability”. Also, the “fraction of big clusters” value in data set [2] (SAXS fit, depending on concentration) is 0.003–0.008. This compound also yielded a radius of gyration in data set [2] (SAXS, Tris buffer 50 mM pH 7.4, 37 °C, random Gaussian chain model) of 10 Å. For the same compound, in data set [2] (SAXS, 5 mg mL^−1), the “self-assembly state in aqueous solution” value is “remained monomeric and unstructured”. Further, the “MIC K. pneumonia ESBL 61962” value against K. pneumonia ESBL 61962 is recorded as >25 µM. The “MIC E. coli ESBL 63103” value in the data set with E. coli ESBL 63103 is on record as ≥25 µM. The “inner membrane disruption” value in the data set with E. coli ML-35 cells is “lower than that seen with more hydrophobic peptoids”.
